Measurements from patent US10626148B2, “Glycopeptides conjugates and uses thereof” (priority 2015, dated 2020).

Legend:
[1] = test system: Vancomycin intermediate resistant S. aureus; experiment: MIC, micro-dilution broth, VISA; type: cell-based; settings: Staphylococcus aureus
Protocol: (§1) Test compounds were assayed in a micro-dilution broth format. Stock solutions were made by serially diluting the compounds using autoclaved millipore water or broth media. The antibacterial activity of the compounds was determined against gram positive bactreia like methicillin-resistant S. aureus (MRSA), vancomycin-intermediate-resistant S. aureus (VISA), vancomycin-sensitive E. faecium (VSE), vancomycin-resistant E. faecalis and vancomycin-resistant E. faecium (VRE). Antibacterial activity of dipicolyl-vancomycin conjugate conjugate (4) in combination with meropemem was determined against gram-negative bacteria such as K. pneumoniae ATCC BAA2146, clinical isolates K. pneumoniae R3949, K. pneumoniae R3934, E. coli R3336 and A. baumanii R676. Bacteria, to be tested, were grown for about 10 h in the suitable media, MRSA, VISA and gram negative bacteria were grown in Yeast-dextrose broth (about 1 g of beef extract, about 2 g of yeast extract, about 5 g of peptone and about 5 g of NaCl in about 1000 mL of sterile distilled water (pH-7)). For solid media, about 5% agar was used along with above mentioned composition. VSE and VRE were cultured in Brain Heart Infusion broth (Himedia). The bacterial samples were freeze dried and stored at −80° C. About 5 μL of these stocks were added to about 3 mL of the nutrient broth or Brain Heart Infusion broth and the culture was grown for about 6 h at about 37° C. prior to the experiments. This 6 h grown culture gives about 10^9 cfu/mL and this was determined by spread plating method. The 6 h grown culture was diluted to give effective cell concentration of about 10^5 cfu/mL which was then used for determining MIC. Compounds were serially diluted, in sterile water (2-fold dilution is employed) in a way that the working concentration was about 10 μM for MRSA, and VSE while for VRE, VISA and gram negative bacteria; it was about 100 μM. About 50 μL of these serial dilutions were added to the wells of 96 well plate followed by the addition of about 150 μL of bacterial solution. The plates were then incubated at about 37° C., 150 rpm in the incubator and O.D at 620 nm was recorded at an interval of about 24 h using TECAN (Infinite series, M200 pro) Plate Reader. Each concentration had triplicate values and the whole experiment was done at least twice and the MIC value was determined by taking the average of triplicate O.D. values for each concentration and plotting it against concentration. The data was then subjected to sigmoidal fitting.

[2] = test system: Methicillin-resistant S. aureus (ATCC 33591); experiment: MIC, micro-dilution broth, MRSA; type: cell-based; settings: Staphylococcus aureus
Protocol: as §1

[3] = test system: meropenem-resistant NDM-1 bacteria; experiment: Combination with meropenem against NDM-1 gram negative bacteria; type: cell-based; settings: in combination with meropenem
Protocol: Test compounds were assayed in a micro-dilution broth format. Stock solutions were made by serially diluting the compounds using autoclaved millipore water or broth media. The antibacterial activity of the compounds was determined against gram positive bactreia like methicillin-resistant S. aureus (MRSA), vancomycin-intermediate-resistant S. aureus (VISA), vancomycin-sensitive E. faecium (VSE), vancomycin-resistant E. faecalis and vancomycin-resistant E. faecium (VRE). Antibacterial activity of dipicolyl-vancomycin conjugate conjugate (4) in combination with meropemem was determined against gram-negative bacteria such as K. pneumoniae ATCC BAA2146, clinical isolates K. pneumoniae R3949, K. pneumoniae R3934, E. coli R3336 and A. baumanii R676. Bacteria, to be tested, were grown for about 10 h in the suitable media, MRSA, VISA and gram negative bacteria were grown in Yeast-dextrose broth (about 1 g of beef extract, about 2 g of yeast extract, about 5 g of peptone and about 5 g of NaCl in about 1000 mL of sterile distilled water (pH-7)). […] This 6 h grown culture gives about 10^9 cfu/mL and this was determined by spread plating method. […] The plates were then incubated at about 37° C., 150 rpm in the incubator and O.D at 620 nm was recorded at an interval of about 24 h using TECAN (Infinite series, M200 pro) Plate Reader. Each concentration had triplicate values and the whole experiment was done at least twice and the MIC value was determined by taking the average of triplicate O.D. values for each concentration and plotting it against concentration. […]
(§2) Then, the antibacterial activities of Dipicolyl-vancomycin conjugate (4) is checked in combination with meropenem against New-Delhi β-lactamase producing gram negative bacteria such as K. pneumoniae BAA2146, clinical isolates K. pneumoniae R3949, K. pneumoniae R3934, E. coli R3336 and A. baumanii R676. […] Further we have also evaluated the antibacterial activity of dipicolyl-vancomycin conjugate (4) in presence of zinc sulphate, wherein it forms dipicolyl-vancomycin-zinc complex (5).

[4] = test system: NDM-1 expressing Klebsiella pneumoniae R3934; experiment: microbe, parasite or virus in culture; type: cell-based; settings: Klebsiella pneumoniae R3934
Protocol: as §1, §2

[5] = test system: NDM-1 expressing Klebsiella pneumoniae ATCC BAA2146; experiment: microbe, parasite or virus in culture; type: cell-based; settings: Klebsiella pneumoniae ATCC BAA2146
Protocol: as §1, §2

[6] = test system: NDM-1 expressing Klebsiella pneumoniae R3949; experiment: microbe, parasite or virus in culture; type: cell-based; settings: Klebsiella pneumoniae R3949
Protocol: as §1, §2

[7] = test system: NDM-1 expressing Escherichia coli R3336; experiment: microbe, parasite or virus in culture; type: cell-based; settings: Escherichia coli R3336
Protocol: as §1, §2

[8] = test system: VREs ATCC 51575; type: in vivo, E. faecalis; settings: CD-1 mice, 12 mg/kg i.p. once daily, three doses
Protocol: Female CD-1 mice 6 to 8 weeks of age and weighing 20 to 25 g were used in this study. On day −7, all mice were injected intravenously (i.v.) with 0.2 mL of 0.2% λ-carrageenan to increase their susceptibility to bacterial renal infection. λ-Carrageenan increases mice susceptibility to renal infection following i.v. injection, possibly by forming a lattice structure in renal tissue and forming a support structure for bacterial attachment and growth. Bacterial strains that fail to cause renal infection in normal mice produce significant renal infections in λ-carrageenan-treated mice. On day 0, all mice were injected i.v. with 0.2 mL of the bacterial culture (VREs ATCC 51575, 10^8 CFU/mouse) through the tail vein. Four hours after the bacterial inoculation, mice were treated intraperitoneally (i.p.) with vancomycin, compound 4 and linezolid at 12 mg/kg of body weight or 0.2 mL of saline (0.9% NaCl) control (n=5). All the test compounds or saline were administered once daily for an additional two consecutive days for a total of three doses. All mice were sacrificed on day 3. Both kidneys from each mouse were removed aseptically and homogenized in 10 mL of saline. The dilutions of the homogenate were plated onto sheep blood agar plates, which were incubated overnight at about 37° C. The bacterial titer was expressed as log10 CFU/g of kidney weight.

[9] = test system: Vancomycin-resistant E. faecalis (VanA, ATCC 51575); experiment: MIC, micro-dilution broth, VREs; type: cell-based; settings: Enterococcus faecalis, ATCC51575
Protocol: as §1

[10] = biological target: T1, NDM-1 enzyme (Klebsiella pneumoniae, UniProt C7C422); experiment: NDM-1 enzyme inhibition, nitrocefin substrate; type: biochemical
T1 construct: made in house; host or cells: E. coli BL21 (DE3)
Protocol: The NDM-1 was produced by E. coli BL21 (DE3) carrying pET30a-NDM-1 in LB medium. Initially, the purified NDM-1 enzyme (5 nM, HEPES buffer, pH-7.4) was supplemented with 20 μM ZnSO4 for 30 min. Next, the enzyme was pre-incubated with the inhibitor (compound 4) for 20 min prior to the initiation of the assay by the addition of the substrate (Nitrocefin, 30 μM). Assays were read in 96-well microplate format at 490 nm (absorbance) using TECAN plate reader (Infinite Pro.) at 37° C. IC50s were deduced from a plot of percent loss of activity versus inhibitor concentration.

T1 sequence (C7C422 29-270, looked up, species assumed): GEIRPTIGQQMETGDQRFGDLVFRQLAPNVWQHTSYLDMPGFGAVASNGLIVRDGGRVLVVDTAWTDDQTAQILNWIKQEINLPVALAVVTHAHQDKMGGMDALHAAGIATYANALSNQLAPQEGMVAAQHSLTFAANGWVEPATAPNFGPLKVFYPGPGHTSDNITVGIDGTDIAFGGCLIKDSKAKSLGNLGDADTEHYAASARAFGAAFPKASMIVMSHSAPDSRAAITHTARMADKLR

SMILES: CN[C@H](CC(C)C)C(=O)N[C@H]1C(=O)N[C@@H](CC(N)=O)C(=O)N[C@H]2C(=O)N[C@H]3C(=O)N[C@H](C(=O)N[C@H](C(=O)NCCCCCCN(Cc4ccccn4)Cc4ccccn4)c4cc(O)cc(O)c4-c4cc3ccc4O)[C@H](O)c3ccc(c(Cl)c3)Oc3cc2cc(c3O[C@H]2OC(CO)[C@H](O)C(O)C2O[C@H]2CC(C)(N)[C@H](O)C(C)O2)Oc2ccc(cc2Cl)[C@H]1O (stereo partly drawn) [Compound 4, Dipicolyl-vancomycin conjugate]
- MIC [1]: 0.4 µM
- MIC [2]: 0.6 µM
- resensitization of meropenem-resistant NDM-1 bacteria to meropenem (synergistic activity) [3]: able to resensitize
- MIC of Meropenem in presence of compound 4 at 12 μM [4]: 3.1 µg/mL
- MIC of Meropenem in presence of compound 4 at 12 μM [5]: 1.5 µg/mL
- MIC of Meropenem in presence of compound 4 at 12 μM [6]: 3.1 µg/mL
- MIC of Meropenem in presence of compound 4 at 12 μM [7]: 12 µg/mL
- reduction of bacterial titer from infected kidneys in comparison to vancomycin [8]: reduced bacterial titer from the infected kidneys more effectively
- CFU reduction compared to vehicle treated control (saline) ([8]; kidneys): ~5.0 log10 CFU
- MIC [9]: 2.5 µM
- IC50 [10]: ~6 µM
- effect on the activity of NDM-1 ([10]; nitrocefin as substrate): potent in-vitro dose-dependent inhibition
